Legend:
[1] = Microsomal stability assay, liver microsome half-life (human); assay type: in vitro ADME; details: pH 7.4; human liver microsomes 0.5 mg/mL + NADPH, 1 μM compound, 37° C; read-out: Liver microsome + NADPH T½ (min) Human
Source text: (§1) Microsomal Stability Assay: Microsomal stability assay is a widely used in vitro model to characterize the metabolic conversion by phase I enzymes, such as cytochrome P450 (CYP) enzymes. Since metabolism is known to be highly variable in different species, microsomal stability assay is commonly run in multiple species. Metabolic stability of testing compound can be evaluated using human, rat, mouse, or other animal liver or intestine microsomes to predict intrinsic clearance.
(§2) The assay was carried out in 96-well microtiter plates at 37° C. Reaction mixtures (25 μL) contained a final concentration of 1 μM test compound, 0.5 mg/mL liver microsomes protein, and 1 mM NADPH and/or 1 mM UDPGA (with alamethicin) in 100 mM potassium phosphate, pH 7.4 buffer with 3 mM MgCl2. The incubation was done with N=1, but duplicate incubation at each time point can be prepared if necessary. At each of the time points (for example, 0, 15, 30, and 60 minutes), 150 μL of quench solution (100% acetonitrile with 0.1% formic acid) with internal standard was transferred to each well. Besides the zero minute controls, mixtures containing the same components except the NADPH can also be prepared as the negative control. Verapamil was included as a positive control to verify assay performance. Plates were sealed, vortexed, and centrifuged at 4° C. for 15 minutes at 4000 rpm. The supernatant is transferred to fresh plates for LC/MS/MS analysis.
(§3) Summarized conditions: [Compound]=1 μM, [LM]=0.5 mg/mL, [NADPH]=1 mM and/or [UDPGA]=1 mM, Buffer=100 mM Potassium Phosphate, pH 7.4 with 3 mM MgCl2, Time=0, 15, 30, and 60 min, and Temperature=37° C.
(§4) All samples were analyzed on LC/MS/MS using an AB Sciex API 4000 instrument, coupled to a Shimadzu LC-20AD LC Pump system. Analytical samples were separated using a Waters Atlantis T3 dC18 reverse phase HPLC column (20 mm×2.1 mm) at a flow rate of 0.5 mL/min. The mobile phase consisted of 0.1% formic acid in water (solvent A) and 0.1% formic acid in 100% acetonitrile (solvent B).
(§5) The extent of metabolism is calculated as the disappearance of the test compound, compared to the 0-min time incubation. Initial rates are calculated for the compound concentration and used to determine half-life (t1/2).

androgen receptor (AR) = molecular target: T1, androgen receptor (AR) (Homo sapiens, UniProt P10275, T878A); test: Androgen-induced PSA-luciferase assay, Luciferase Assay A (LNCaP transiently transfected with PSA (6.1 kb)-luciferase reporter); assay type: cell-based; details: LNCaP cells, 1 h pretreatment, R1881 (1 nM) 24 h, read-out: PSA-Luc IC50 Range
T1 construct: endogenous in cells; host or cells: LNCaP
T1 sequence (P10275 1-920 T878A): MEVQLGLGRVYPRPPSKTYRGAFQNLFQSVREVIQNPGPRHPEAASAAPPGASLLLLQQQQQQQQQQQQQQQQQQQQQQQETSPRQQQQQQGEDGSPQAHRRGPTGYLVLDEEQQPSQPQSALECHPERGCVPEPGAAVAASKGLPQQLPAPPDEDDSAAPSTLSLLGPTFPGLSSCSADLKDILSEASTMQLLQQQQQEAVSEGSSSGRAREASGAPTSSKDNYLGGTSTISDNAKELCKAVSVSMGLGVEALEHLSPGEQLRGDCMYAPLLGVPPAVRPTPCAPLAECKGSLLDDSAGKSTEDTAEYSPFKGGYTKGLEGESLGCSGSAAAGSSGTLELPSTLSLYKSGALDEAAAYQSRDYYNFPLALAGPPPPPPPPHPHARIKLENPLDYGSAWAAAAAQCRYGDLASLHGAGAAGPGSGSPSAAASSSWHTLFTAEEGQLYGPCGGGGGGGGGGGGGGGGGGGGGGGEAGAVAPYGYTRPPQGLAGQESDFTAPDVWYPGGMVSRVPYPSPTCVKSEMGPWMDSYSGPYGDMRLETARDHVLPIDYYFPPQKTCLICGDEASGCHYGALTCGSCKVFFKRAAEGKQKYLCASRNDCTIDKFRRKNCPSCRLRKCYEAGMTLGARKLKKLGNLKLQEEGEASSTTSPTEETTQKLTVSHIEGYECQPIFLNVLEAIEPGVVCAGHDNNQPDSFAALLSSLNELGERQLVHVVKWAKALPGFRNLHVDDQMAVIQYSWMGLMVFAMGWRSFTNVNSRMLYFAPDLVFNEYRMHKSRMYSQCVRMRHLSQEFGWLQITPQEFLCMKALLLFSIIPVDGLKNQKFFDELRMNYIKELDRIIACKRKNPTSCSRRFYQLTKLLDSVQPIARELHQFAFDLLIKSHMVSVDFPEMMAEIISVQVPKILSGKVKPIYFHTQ
In short: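 LNCaP cells transfected 24 h with PSA (6.1 kb)-luciferase reporter, pretreated 1 h with compound, then stimulated 24 h with R1881 (1 nM). Firefly luminescence in lysates normalized to protein content; IC50 from activity relative to R1881-induced vehicle control.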

[2] = Microsomal stability assay, liver microsome half-life (rat); assay type: in vitro ADME; details: pH 7.4; rat liver microsomes 0.5 mg/mL + NADPH, 1 μM compound, 37° C; read-out: Liver microsome + NADPH T½ (min) Rat
Source text: as §1, §2, §3, §4, §5

[3] = Microsomal stability assay, liver microsome half-life (mouse); assay type: in vitro ADME; details: pH 7.4; mouse liver microsomes 0.5 mg/mL + NADPH, 1 μM compound, 37° C; read-out: Liver microsome + NADPH T½ (min) Mouse
Source text: as §1, §2, §3, §4, §5

[4] = Microsomal stability assay, liver microsome half-life (dog); assay type: in vitro ADME; details: pH 7.4; dog liver microsomes 0.5 mg/mL + NADPH, 1 μM compound, 37° C; read-out: Liver microsome + NADPH T½ (min) Dog
Source text: as §1, §2, §3, §4, §5

[5] = Microsomal stability assay, liver microsome half-life (monkey); assay type: in vitro ADME; details: pH 7.4; monkey liver microsomes 0.5 mg/mL + NADPH, 1 μM compound, 37° C; read-out: Liver microsome + NADPH T½ (min) Monkey
Source text: as §1, §2, §3, §4, §5

Row | half-life at 1 μM [1] [min] | IC50 (androgen receptor (AR)) [nM] | half-life at 1 μM [2] [min] | half-life at 1 μM [3] [min] | half-life at 1 μM [4] [min] | half-life at 1 μM [5] [min] | SMILES
1 | > 120 | 500 to 2000 | > 120 | > 120 | > 120 | > 120 | COc1c(Cl)cc(C(C)(C)c2ccc(OCc3ccnc(NS(C)(=O)=O)n3)cc2)cc1C#N [Compound A17, N-(4-((4-(2-(3-chloro-5-cyano-4-methoxyphenyl)propan-2-yl)phenoxy)methyl)pyrimidin-2-yl)methanesulfonamide]
2 | 101 | 500 to 2000 | > 120 | > 120 | > 120 | 100 | CS(=O)(=O)N[C@H]1C[C@H](n2cc(-c3ccc(N(CC(F)(F)F)c4cc(Cl)c(OCCCl)c(C#N)c4)cc3)cn2)C1 [Compound A84]
3 | 58 | 500 to 2000 | 103 | > 120 | > 120 | 28 | CC(C)(c1ccc(-c2ccc(N3CC(NS(C)(=O)=O)C3)nc2)cc1)c1cc(Cl)c(OCCCl)c(C#N)c1 [Compound A11]
4 | > 120 | 500 to 2000 | > 120 | > 120 | > 120 | > 120 | CS(=O)(=O)Nc1cnc2cc(-c3ccc(N(CC(F)(F)F)c4cc(Cl)c(OCCCl)c(C#N)c4)cc3)ccc2n1 [Compound A22, N-(6-(4-((3-chloro-4-(2-chloroethoxy)-5-cyanophenyl)(2,2,2-trifluoroethyl)amino)phenyl)quinoxalin-2-yl)methanesulfonamide]
5 | > 120 | 500 to 2000 | > 120 | > 120 | > 120 | > 120 | CN(c1ccc(-c2ccc3nc(NS(C)(=O)=O)cnc3c2)cc1)c1cc(Cl)c(OC2CC2)c(C#N)c1 [Compound A164, N-(6-(4-((3-chloro-5-cyano-4-cyclopropoxyphenyl)(methyl)amino)phenyl)quinoxalin-2-yl)methanesulfonamide]
6 | > 120 | 500 to 2000 | > 120 | > 120 | > 120 | > 120 | CS(=O)(=O)Nc1cnc2cc(-c3ccc(Oc4cc(Cl)c(OCC(F)(F)F)c(C#N)c4)cc3)ccc2n1 [Compound A98]
7 | > 120 | 500 to 2000 | > 120 | > 120 | > 120 | > 120 | CS(=O)(=O)Nc1cnc2cc(-c3ccc(Oc4cc(Cl)c(OC5CCC5)c(C#N)c4)cc3)ccc2n1 [Compound A78]
8 | > 120 | 500 to 2000 | > 120 | > 120 | > 120 | > 120 | CS(=O)(=O)Nc1nc2ccc(-c3ccc(Oc4cc(Cl)c(OCCCl)c(C#N)c4)cc3)cc2cc1F [Compound A157]
9 | > 120 | < 500 | 66 | > 120 | > 120 | 49 | CC(C)(c1ccc(-c2cnc(N3CC(NS(C)(=O)=O)C3)nc2)cc1)c1cc(Cl)c(OCCCl)c(C#N)c1 [Compound A36, N-(1-(5-(4-(2-(3-chloro-4-(2-chloroethoxy)-5-cyanophenyl)propan-2-yl)phenyl)pyrimidin-2-yl)azetidin-3-yl)methanesulfonamide]
10 | 78 | 500 to 2000 | > 120 | > 120 | > 120 | > 120 | CC(C)(C)N(c1ccc(-c2ccc3nc(NS(C)(=O)=O)cnc3c2)cc1)c1cc(Cl)c(OCCCl)c(C#N)c1 [Compound A28]
11 | 82 | 500 to 2000 | 72 | > 120 | > 120 | 19 | CC(C)(c1ccc(-c2cnn(CCNS(C)(=O)=O)c2)cc1)c1cc(Cl)c(OCCCl)c(C#N)c1 [Compound A12]
12 | > 120 | < 500 | > 120 | > 120 | > 120 | > 120 | COc1c(Cl)cc(N(c2ccc(-c3ccc4nc(NS(C)(=O)=O)cnc4c3)cc2)C2CC2)cc1C#N [Compound A163]
13 | > 120 | 500 to 2000 | > 120 | > 120 | > 120 | > 120 | CC(C)(c1ccc(OC[C@H]2C[C@H](NS(C)(=O)=O)C2)cc1)c1cc(Cl)c(OCCCl)c(C#N)c1 [Compound A15, N-((1r,3r)-3-((4-(2-(3-chloro-4-(2-chloroethoxy)-5-cyanophenyl)propan-2-yl)phenoxy)methyl)cyclobutyl)methanesulfonamide]
14 | > 120 | 500 to 2000 | > 120 | > 120 | > 120 | > 120 | [2H]C([2H])([2H])N(c1ccc(-c2ccc3nc(NS(C)(=O)=O)cnc3c2)cc1)c1cc(Cl)c(OCCCl)c(C#N)c1 [Compound A145]
15 | > 120 | 500 to 2000 | > 120 | > 120 | > 120 | 117 | CS(=O)(=O)NC1CN(c2cnc(-c3ccc(Oc4cc(Cl)c(OCCCl)c(C#N)c4)cc3)cn2)C1 [Compound A94]
16 | > 120 | 500 to 2000 | > 120 | > 120 | > 120 | > 120 | CS(=O)(=O)Nc1cnc2cc(-c3ccc(N(c4cc(Cl)c(OC5CC5)c(C#N)c4)C4CC4)cc3)ccc2n1 [Compound A177]
17 | > 120 | – | > 120 | > 120 | > 120 | > 120 | CNC(=O)c1ccc(N2C(=S)N(c3ccc(C#N)c(C(F)(F)F)c3)C(=O)C2(C)C)cc1F [Enzalutamide, enzalutamide, reference compound]

— patent publication US20230373934A1, “ANDROGEN RECEPTOR MODULATORS AND METHODS FOR THEIR USE” (ESSA Pharma, Inc., priority 2022, published 2023)
